Consider 28 molecules from patent US8106055B2, “Substituted amide compounds” (Gruenenthal GmbH, priority 2007, dated 2012).

In this assay the target is T1, human μ opiate receptor (Homo sapiens, UniProt P35372).
T1 construct: purchased PerkinElmer Life Sciences, Zaventem, Belgium RB-HOM; host or cells: CHO-K1 cells (membrane preparation)
Nature of the assay: Affinity for the human μ opiate receptor ([3H]-naloxone displacement, CHO-K1 receptor membrane preparation, SPA). The note with it: test concentration of 1 μM; read-out: μ (binding on the μ opioid receptor, % inhibition). It is filed as binding. In short, it runs like this: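 Test compounds, 1 nmol/l [3H]-naloxone and CHO-K1 membranes bearing the human μ opiate receptor are combined with WGA-SPA beads. After 90 minutes at room temperature, plates are centrifuged and radioactivity counted. Specific-binding inhibition at 1 μmol/l is given in percent.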

T1 sequence (P35372 whole entry): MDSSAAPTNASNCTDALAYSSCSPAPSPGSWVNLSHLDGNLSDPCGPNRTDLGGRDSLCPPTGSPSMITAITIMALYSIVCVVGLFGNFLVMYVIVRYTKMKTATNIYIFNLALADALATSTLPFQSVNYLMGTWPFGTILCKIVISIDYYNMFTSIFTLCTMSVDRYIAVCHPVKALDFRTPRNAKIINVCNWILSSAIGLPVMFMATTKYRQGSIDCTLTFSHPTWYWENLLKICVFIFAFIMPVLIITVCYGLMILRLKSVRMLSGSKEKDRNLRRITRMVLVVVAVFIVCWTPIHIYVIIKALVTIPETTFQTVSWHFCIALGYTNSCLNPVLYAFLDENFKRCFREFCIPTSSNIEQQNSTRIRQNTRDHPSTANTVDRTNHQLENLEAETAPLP

Consider `COc1ccc(S(=O)(=O)N2CCCCC2COCC(=O)NCC2CCC(C(c3ccccc3)N(C)C)CC2)cc1OC` (stereo not shown) [Example 150, 2-((1-(3,4-Dimethoxyphenylsulfonyl)piperidin-2-yl)methoxy)-N-((4-((dimethylamino)(phenyl)methyl)cyclohexyl)methyl)acetamide], for which the inhibition at 1 µM was found to be 86%.

As to `COc1ccc(S(=O)(=O)N2CCCCC2COCC(=O)NCC2CCC(C(c3cccc(F)c3)N(C)C)CC2)c(OC)c1` (stereo not shown) [Example 151, 2-((1-(2,4-dimethoxyphenylsulfonyl)piperidin-2-yl)methoxy)-N-((4-((dimethylamino)(3-fluorophenyl)methyl)cyclohexyl)methyl)acetamide], the inhibition at 1 µM worked out at 90%.

In the case of `CN(C)C(c1cccs1)C1CCC(NC(=O)COCCN(C)S(=O)(=O)c2cccc(C(F)(F)F)c2)CC1` (stereo not shown) [Example 152, N-(4-((dimethylamino)(thiophen-2-yl)methyl)cyclohexyl)-2-(2-(N-methyl-3-(trifluoromethyl)phenylsulfonamido)ethoxy)acetamide], the inhibition at 1 µM is 89%.

In the case of `COc1ccc(S(=O)(=O)N2CCC(OCC(=O)NC3CCC(C(c4cccs4)N(C)C)CC3)C2)cc1OC` (stereo not shown) [Example 155, 2-(1-(3,4-dimethoxyphenylsulfonyl)pyrrolidin-3-yloxy)-N-(4-((dimethylamino)(thiophen-2-yl)methyl)cyclohexyl)acetamide], the inhibition at 1 µM turned out to be 88%.

With `Cc1ccc(S(=O)(=O)N2CCC(OCC(=O)NC3CCC(C(c4cccs4)N(C)C)CC3)C2)cc1` (stereo not shown) [Example 156, N-(4-((dimethylamino)(thiophen-2-yl)methyl)cyclohexyl)-2-(1-tosylpyrrolidin-3-yloxy)acetamide], the inhibition at 1 µM is 80%.

For the molecule `Cc1ccc(S(=O)(=O)N(C)CCOCC(=O)NCC2CCC(C(c3ccccc3)N(C)C)CC2)cc1` (stereo not shown) [Example 157, N-((4-((dimethylamino) (phenyl)methyl)cyclohexyl)methyl)-2-(2-(N,4-dimethylphenylsulfonamido)ethoxy)acetamide], the inhibition at 1 µM came to 87%.

Take `CN(C)C(c1cccc(F)c1)C1CCC(CNC(=O)COCCN(C)S(=O)(=O)c2ccc(Cl)cc2)CC1` (stereo not shown) [Example 158, 2-(2-(4-chloro-N-methylphenylsulfonamido)ethoxy)-N-((4-((dimethylamino)(3-fluorophenyl)methyl)cyclohexyl)methyl)acetamide]: the inhibition at 1 µM amounted to 87%.

On to `CN(C)C(c1cccs1)C1CCC(NC(=O)COCCN(Cc2ccccc2)S(=O)(=O)c2ccccc2)CC1` (stereo not shown) [Example 161, 2-(2-(N-benzylphenylsulfonamido)ethoxy)-N-(4-((dimethylamino)(thiophen-2-yl)methyl)cyclohexyl)acetamide], for which the inhibition at 1 µM worked out at 86%.

`COc1ccc(S(=O)(=O)N2CCCC2COCC(=O)NC2CCC(C(c3cccs3)N(C)C)CC2)cc1` (stereo not shown) [Example 162, N-(4-((dimethylamino)(thiophen-2-yl)methyl)cyclohexyl)-2-((1-(4-methoxyphenylsulfonyl)pyrrolidin-2-yl)methoxy)acetamide]: the inhibition at 1 µM turned out to be 86%.

Regarding `COc1ccc(S(=O)(=O)N2Cc3ccccc3CC2COCC(=O)NCC2CCC(C(c3cccc(F)c3)N(C)C)CC2)cc1` (stereo not shown) [Example 163, N-((4-((dimethylamino)(3-fluorophenyl)methyl)cyclohexyl)methyl)-2-((2-(4-methoxyphenylsulfonyl)-1,2,3,4-tetrahydroisoquinolin-3-yl)methoxy)acetamide], the inhibition at 1 µM is 87%.

As for `CN(C)C(c1cccc(F)c1)C1CCC(CNC(=O)COC2CCCCC2N(C)S(=O)(=O)c2ccc(Cl)c(Cl)c2)CC1` (stereo not shown) [Example 164, 2-(2-(3,4-dichloro-N-methylphenylsulfonamido)cyclohexyloxy)-N-((4-((dimethylamino)(3-fluorophenyl)methyl)cyclohexyl)methyl)acetamide], the inhibition at 1 µM amounted to 86%.

For `COc1cc(C)c(S(=O)(=O)N2CCC(OCC(=O)NC3CCC(C(c4ccccc4)N(C)C)CC3)C2)c(C)c1` (stereo not shown) [Example 165, N-(4-((dimethylamino)(phenyl)methyl)cyclohexyl)-2-(1-(4-methoxy-2,6-dimethylphenylsulfonyl)pyrrolidin-3-yloxy)acetamide], the inhibition at 1 µM is 87%.

Regarding `Cc1ccc(S(=O)(=O)N2CCC(OCC(=O)NC3CCC(C(c4cccc(F)c4)N(C)C)CC3)C2)cc1` (stereo not shown) [Example 167, N-(4-((dimethylamino)(3-fluorophenyl)methyl)cyclohexyl)-2-(1-tosylpyrrolidin-3-yloxy)acetamide], the inhibition at 1 µM turned out to be 82%.

As to `COc1ccc(S(=O)(=O)N(C)CCOCC(=O)NCC2CCC(C(c3ccccc3)N(C)C)CC2)cc1OC` (stereo not shown) [Example 169, 2-(2-(3,4-dimethoxy-N-methylphenylsulfonamido)ethoxy)-N-((4-((dimethylamino)(phenyl)methyl)cyclohexyl)methyl)acetamide], the inhibition at 1 µM came out at 85%.

Take `CN(C)C(c1cccc(F)c1)C1CCC(CNC(=O)COC2CCN(S(=O)(=O)c3cccc(C(F)(F)F)c3)C2)CC1` (stereo not shown) [Example 170, N-((4-((dimethylamino)(3-fluorophenyl)methyl)cyclohexyl)methyl)-2-(1-(3-(trifluoromethyl)phenylsulfonyl)pyrrolidin-3-yloxy)acetamide]: the inhibition at 1 µM worked out at 83%.

Regarding `CN(C)C(c1cccc(F)c1)C1CCC(NC(=O)COCCN(C)S(=O)(=O)c2c(Cl)cccc2Cl)CC1` (stereo not shown) [Example 171, 2-(2-(2,6-dichloro-N-methylphenylsulfonamido)ethoxy)-N-(4-((dimethylamino)(3-fluorophenyl)methyl)cyclohexyl)acetamide], the inhibition at 1 µM came to 84%.

Consider `CN(C)C(c1cccc(F)c1)C1CCC(NC(=O)COC2CCN(S(=O)(=O)c3ccc(F)cc3)C2)CC1` (stereo not shown) [Example 172, N-(4-((dimethylamino)(3-fluorophenyl)methyl)cyclohexyl)-2-(1-(4-fluorophenylsulfonyl)pyrrolidin-3-yloxy)acetamide], for which the inhibition at 1 µM was found to be 78%.

`COc1cc(C)c(S(=O)(=O)N2CCC(OCC(=O)NCC3CCC(C(c4ccccc4)N(C)C)CC3)C2)c(C)c1` (stereo not shown) [Example 173, N-((4-((dimethylamino)(phenyl)methyl)cyclohexyl)methyl)-2-(1-(4-methoxy-2,6-dimethylphenylsulfonyl)pyrrolidin-3-yloxy)acetamide]: the inhibition at 1 µM came out at 87%.

As for `CN(C)C(c1cccc(F)c1)C1CCC(CCNC(=O)COCCN(C)S(=O)(=O)c2c(Cl)cc(Cl)cc2Cl)CC1` (stereo not shown) [Example 174, N-(2-(4-((dimethylamino)(3-fluorophenyl)methyl)cyclohexyl)ethyl)-2-(2-(2,4,6-trichloro-N-methylphenylsulfonamido)ethoxy)acetamide], the inhibition at 1 µM came out at 90%.

Consider `CN(C)C(c1cccc(F)c1)C1CCC(NC(=O)COCCN(Cc2ccccc2)S(=O)(=O)c2ccccc2)CC1` (stereo not shown) [Example 175, 2-(2-(N-benzylphenylsulfonamido)ethoxy)-N-(4-((dimethylamino)(3-fluorophenyl)methyl)cyclohexyl)acetamide], for which the inhibition at 1 µM was 85%.

Consider `CCN(CCOCC(=O)NC1CCC(C(c2cccc(F)c2)N(C)C)CC1)S(=O)(=O)c1c(C)cc(OC)c(C)c1C` (stereo not shown) [Example 176, N-(4-((dimethylamino)(3-fluorophenyl)methyl)cyclohexyl)-2-(2-(N-ethyl-4-methoxy-2,3,6-trimethylphenylsulfonamido)ethoxy)acetamide], for which the inhibition at 1 µM came out at 87%.

Consider `COc1cc(C)c(S(=O)(=O)N2CCC(OCC(=O)NCCC3CCC(C(c4cccs4)N(C)C)CC3)CC2)c(C)c1C` (stereo not shown) [Example 177, N-(2-(4-((dimethylamino)(thiophen-2-yl)methyl)cyclohexyl)ethyl)-2-(1-(4-methoxy-2,3,6-trimethylphenylsulfonyl)piperidin-4-yloxy)acetamide], for which the inhibition at 1 µM worked out at 88%.

For the molecule `COc1cc(C)c(S(=O)(=O)N2CCC(CCOCC(=O)NC3CCC(C(c4ccc(F)cc4)N(C)C)CC3)CC2)c(C)c1C` (stereo not shown) [Example 178, N-(4-((dimethylamino)(4-fluorophenyl)methyl)cyclohexyl)-2-(2-(1-(4-methoxy-2,3,6-trimethylphenylsulfonyl)piperidin-4-yl)ethoxy)acetamide], the inhibition at 1 µM came to 81%.

With `COc1ccc(S(=O)(=O)N2CCCCC2COCC(=O)NCC2CCC(C(c3cccc(F)c3)N(C)C)CC2)cc1` (stereo not shown) [Example 179, N-((4-((dimethylamino)(3-fluorophenyl)methyl)cyclohexyl)methyl)-2-((1-(4-methoxyphenylsulfonyl)piperidin-2-yl)methoxy)acetamide], the inhibition at 1 µM is 85%.

On to `COc1ccc(S(=O)(=O)N2CCCCC2COCC(=O)NCCC2CCC(C(c3cccc(F)c3)N(C)C)CC2)cc1` (stereo not shown) [Example 180, N-(2-(4-((dimethylamino)(3-fluorophenyl)methyl)cyclohexyl)ethyl)-2-((1-(4-methoxyphenylsulfonyl)piperidin-2-yl)methoxy)acetamide], for which the inhibition at 1 µM came to 90%.

On to `COc1ccc(S(=O)(=O)N2CCCC2COCC(=O)NC2CCC(C(c3ccccc3)N(C)C)CC2)cc1` (stereo not shown) [Example 182, N-(4-((dimethylamino)(phenyl)methyl)cyclohexyl)-2-((1-(4-methoxyphenylsulfonyl)pyrrolidin-2-yl)methoxy)acetamide], for which the inhibition at 1 µM amounted to 82%.

For `COc1cc(C)c(S(=O)(=O)N(C)CCOCC(=O)NCCC2CCC(C(c3cccc(F)c3)N(C)C)CC2)c(C)c1C` (stereo not shown) [Example 183, N-(2-(4-((dimethylamino)(3-fluorophenyl)methyl)cyclohexyl)ethyl)-2-(2-(4-methoxy-N,2,3,6-tetramethylphenylsulfonamido)ethoxy)acetamide], the inhibition at 1 µM stood at 83%.

In the case of `COc1ccc(S(=O)(=O)N2CCC(OCC(=O)NCC3CCC(C(c4cccc(F)c4)N(C)C)CC3)C2)cc1OC` (stereo not shown) [Example 184, 2-(1-(3,4-dimethoxyphenylsulfonyl)pyrrolidin-3-yloxy)-N-((4-((dimethylamino)(3-fluorophenyl)methyl)cyclohexyl)methyl)acetamide], the inhibition at 1 µM was 91%.
